Data as given in patent publication US8609836B2, “4-aryl-2-anilino-pyrimidines” (Janssen Pharmaceutica NV, priority 2008, dated 2013).
pIC50: −log10 of the molar value.

Key:
PLK4 (h) = PLK4 (h) (Homo sapiens, UniProt O00444); experiment: PLK-4 human kinase inhibition, scintillation proximity assay (SPA); assay type: biochemical; settings: read-out: PLK4 pIC50 (converted)
Method: (§1) In the SPA technology the activity of the kinase of interest is measured using an appropriate biotinylated substrate that is incubated with the aforementioned kinase protein in the presence of (^33P) radiolabeled ATP. (^33P) Phosphorylation of the substrate is subsequently measured through binding of the phosphorylated substrate to streptavidine coated beads that are based on the scintillant poly(vinyl toluene) (PVT-Beads). The scintillation intensity is detected by imaging on Leadseeker.
(§2) All kinases are pre-diluted to a 10× working concentration prior to addition into the assay. The composition of the dilution buffer for each kinase is detailed below.
(6.0 μCi/ml). After incubation of 60 minutes at room temperature, the reaction is stopped by addition of 40 μL of stop solution containing 8.7 mM EDTA, BSA 0.17%, 0.17% Triton X-100, 1.7 mg/ml SPA beads (GE-healthcare). The plate is centrifuged and read for Scintillation imaging on Leadseeker.

AuroraB (h) = AuroraB (h) (Homo sapiens, UniProt Q96GD4); experiment: Aurora-B human kinase inhibition, SPA; assay type: biochemical; settings: read-out: AuroraB pIC50 (converted)
AuroraB (h), sequence (Q96GD4 whole entry): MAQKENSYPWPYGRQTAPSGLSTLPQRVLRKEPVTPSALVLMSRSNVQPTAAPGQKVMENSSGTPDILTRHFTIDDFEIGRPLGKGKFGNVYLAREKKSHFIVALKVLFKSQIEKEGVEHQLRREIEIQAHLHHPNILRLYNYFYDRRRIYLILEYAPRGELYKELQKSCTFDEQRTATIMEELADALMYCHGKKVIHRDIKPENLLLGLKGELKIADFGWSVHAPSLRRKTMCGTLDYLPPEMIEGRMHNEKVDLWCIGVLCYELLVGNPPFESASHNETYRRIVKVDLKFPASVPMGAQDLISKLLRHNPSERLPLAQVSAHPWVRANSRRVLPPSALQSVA
Method: (§3) The in vitro inhibition of a panel of kinases was assessed using either the scintillation proximity assay (SPA) as described by Cook, N. D. et al., Advances in Experimental Medicine and Biology (1991), 36; p. 525-528.
as §1, §2
In a final reaction volume of 30 μl, AuroraB (h) (0.5 μg/ml) is incubated with 60 mM Hepes pH 7.5, 3 mM MgCl2, 3 mM MnCl2, 3 μM Na3VO4, 0.05 mg/ml PEG, 2 mM DTT, 3 μM Biotin-[…]-OH, 0.5 μM ATP and 2.2 nM [γ-^33P-ATP] (6.8 μCi/ml). After incubation of 60 minutes at room temperature, the reaction is stopped by addition of 40 μL of stop solution containing 8.7 mM EDTA, BSA 0.17%, 0.17% Triton X-100, 5 mg/ml SPA beads (GE-healthcare). The plate is centrifuged and read for Scintillation imaging on Leadseeker.

GSK3β (h) = GSK3β (h) (Homo sapiens, UniProt P49841); experiment: GSK-3β human kinase inhibition, SPA; assay type: biochemical; settings: read-out: GSK3b pIC50 (converted)
GSK3β (h), sequence (P49841 whole entry): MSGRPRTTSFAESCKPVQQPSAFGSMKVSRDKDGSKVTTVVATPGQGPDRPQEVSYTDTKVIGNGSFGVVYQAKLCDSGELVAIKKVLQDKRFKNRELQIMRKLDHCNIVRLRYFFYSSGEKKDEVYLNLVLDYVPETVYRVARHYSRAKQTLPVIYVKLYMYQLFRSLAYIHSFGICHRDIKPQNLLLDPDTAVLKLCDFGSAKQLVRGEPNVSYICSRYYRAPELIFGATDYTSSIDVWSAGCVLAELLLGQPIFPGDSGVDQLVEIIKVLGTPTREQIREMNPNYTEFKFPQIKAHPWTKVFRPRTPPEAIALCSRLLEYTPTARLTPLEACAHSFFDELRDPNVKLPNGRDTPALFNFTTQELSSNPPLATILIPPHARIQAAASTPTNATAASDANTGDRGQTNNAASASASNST
Method: as §3, §1, §2
In a final reaction volume of 30 μl, GSK3β (h) (1 μg/ml) is incubated with 25 mM Tris pH 7.4, 10 mM MgCl2, 1 mM DTT, 1 μM peptide Biotin-[…]-OH, 1 μM ATP and 2 nM [γ-^33P-ATP] (6.0 μCi/ml). After incubation of 60 minutes at room temperature, the reaction is stopped by addition of 40 μL of stop solution containing 8.7 mM EDTA, BSA 0.17%, 0.17% Triton X-100, 6.25 mg/ml SPA beads (GE-healthcare). The plate is centrifuged and read for Scintillation imaging on Leadseeker.

CDK1/CyclinB (h) = CDK1/CyclinB (h) (Homo sapiens, UniProt P06493); experiment: CDK1/CyclinB human kinase inhibition, Invitrogen's FRET assay (Z'lyte); assay type: biochemical; settings: read-out: CDK1 pIC50 (converted)
CDK1/CyclinB (h), sequence (P06493 whole entry): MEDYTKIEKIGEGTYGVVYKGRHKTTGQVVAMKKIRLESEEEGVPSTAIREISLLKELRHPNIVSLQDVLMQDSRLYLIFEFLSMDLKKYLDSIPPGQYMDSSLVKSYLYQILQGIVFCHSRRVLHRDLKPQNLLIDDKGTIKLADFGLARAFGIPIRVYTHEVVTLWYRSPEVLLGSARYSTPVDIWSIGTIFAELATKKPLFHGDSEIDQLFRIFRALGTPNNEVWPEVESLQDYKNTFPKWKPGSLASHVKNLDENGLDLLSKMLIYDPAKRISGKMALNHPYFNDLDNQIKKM
CDK1/CyclinB (h), sequence (P14635 whole entry partner): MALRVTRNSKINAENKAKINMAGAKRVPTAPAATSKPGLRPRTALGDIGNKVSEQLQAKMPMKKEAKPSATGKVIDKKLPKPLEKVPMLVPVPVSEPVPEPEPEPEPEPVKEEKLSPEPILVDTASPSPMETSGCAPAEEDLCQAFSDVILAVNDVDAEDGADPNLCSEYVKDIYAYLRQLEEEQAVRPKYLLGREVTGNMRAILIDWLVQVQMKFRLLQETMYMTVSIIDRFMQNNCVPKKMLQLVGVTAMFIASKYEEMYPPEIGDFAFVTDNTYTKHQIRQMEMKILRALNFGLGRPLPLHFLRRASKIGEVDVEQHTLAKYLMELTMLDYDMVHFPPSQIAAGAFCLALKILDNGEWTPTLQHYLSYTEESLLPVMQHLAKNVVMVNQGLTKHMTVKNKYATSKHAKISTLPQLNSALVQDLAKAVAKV
Method: as §3, §2
In a final reaction volume of 10 μl, CDK1/CyclinB (h) (0.2 μg/ml) is incubated with 50 mM Hepes pH 7.5, 10 mM MgCl2, 1 mM EGTA, 0.01% Brij-35, 2 μM Z'lyte Ser/Thr peptide 12 and 10 μM ATP (Invitrogen's FRET assay). After incubation of 60 minutes at room temperature, the reaction is stopped by addition of 5 μL development reagent containing protease mix. After 60 minutes room temperature the development reaction is stopped by adding 5 μl stop solution. The plate is then read in fluorescence plate reader with excitation: 390 nm and dual emission: 460 and 538 nm. Emission ratio is determined to the formula=Emission signal intensity at 460 nm/Emission signal intensity at 538 nm.

PLK1 T210D (h) = PLK1 T210D (h) (Homo sapiens, UniProt P53350, T210D); experiment: PLK1 human kinase inhibition, SPA; assay type: biochemical; settings: read-out: PLK1 pIC50 (converted)
PLK1 T210D (h), sequence (P53350 whole entry T210D): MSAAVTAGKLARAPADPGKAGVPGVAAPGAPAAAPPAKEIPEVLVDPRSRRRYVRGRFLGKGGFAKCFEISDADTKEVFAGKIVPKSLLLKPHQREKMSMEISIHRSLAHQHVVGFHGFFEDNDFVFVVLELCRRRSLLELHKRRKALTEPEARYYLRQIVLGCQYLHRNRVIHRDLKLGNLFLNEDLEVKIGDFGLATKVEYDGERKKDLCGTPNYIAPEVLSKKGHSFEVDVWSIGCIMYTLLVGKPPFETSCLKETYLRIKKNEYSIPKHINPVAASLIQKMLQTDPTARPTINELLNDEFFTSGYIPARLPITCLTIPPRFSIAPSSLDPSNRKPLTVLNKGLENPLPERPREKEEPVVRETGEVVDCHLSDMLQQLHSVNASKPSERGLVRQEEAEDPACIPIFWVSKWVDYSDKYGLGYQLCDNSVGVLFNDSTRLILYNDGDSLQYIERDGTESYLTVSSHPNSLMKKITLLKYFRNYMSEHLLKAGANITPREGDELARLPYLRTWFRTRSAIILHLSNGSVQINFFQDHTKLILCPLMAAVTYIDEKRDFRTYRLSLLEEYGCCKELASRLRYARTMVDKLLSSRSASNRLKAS
Method: as §3, §1, §2
In a final reaction volume of 30 μl, PLK1 T210D (h) (0.125 ng/ml) is incubated with 50 mM Hepes pH 8.0, 2 mM MnCl2, 1 mM DTT, 2 μM of peptide Biotin-Tds linker-[…], 0.1 μM ATP and 2 nM [γ-^33P-ATP] (6.0 μCi/ml). After incubation of 40 minutes at room temperature, the reaction is stopped by addition of 40 μL of stop solution containing 8.7 mM EDTA, BSA 0.17%, 0.17% Triton X-100, 25 mg/ml SPA beads (GE-healthcare). The plate is centrifuged and read for Scintillation imaging on Leadseeker.

PLK2 (h) = PLK2 (h) (Homo sapiens, UniProt Q9NYY3); experiment: PLK2 human kinase inhibition, SPA; assay type: biochemical; settings: read-out: PLK2 pIC50 (converted)
PLK2 (h), sequence (Q9NYY3 whole entry): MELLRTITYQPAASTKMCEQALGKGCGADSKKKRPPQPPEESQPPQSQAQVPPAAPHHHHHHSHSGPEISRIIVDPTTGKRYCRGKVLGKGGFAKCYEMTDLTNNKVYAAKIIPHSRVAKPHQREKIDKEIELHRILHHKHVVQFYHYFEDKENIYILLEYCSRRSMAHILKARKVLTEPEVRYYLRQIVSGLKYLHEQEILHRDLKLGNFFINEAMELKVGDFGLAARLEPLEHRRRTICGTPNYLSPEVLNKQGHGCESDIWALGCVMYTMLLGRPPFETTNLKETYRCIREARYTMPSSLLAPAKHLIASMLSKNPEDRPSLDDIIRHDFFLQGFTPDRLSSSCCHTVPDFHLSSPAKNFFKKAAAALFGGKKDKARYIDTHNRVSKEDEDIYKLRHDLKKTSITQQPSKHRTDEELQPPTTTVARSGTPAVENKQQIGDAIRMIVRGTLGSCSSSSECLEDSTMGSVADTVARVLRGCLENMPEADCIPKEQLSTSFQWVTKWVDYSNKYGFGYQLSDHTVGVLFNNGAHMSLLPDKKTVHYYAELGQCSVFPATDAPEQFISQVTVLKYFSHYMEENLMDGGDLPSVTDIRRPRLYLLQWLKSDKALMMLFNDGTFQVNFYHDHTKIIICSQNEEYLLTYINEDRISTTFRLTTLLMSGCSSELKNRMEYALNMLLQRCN
Method: as §3, §1, §2
(§4) In a final reaction volume of 30 μl, PLK2 (h) (30 μg/ml) is incubated with 50 mM Hepes pH 8.0, 2 mM MnCl2, 1 mM DTT, 2 μM of peptide Biotin-Tds linker-[…], 0.1 μM ATP and 2 nM [γ-^33P-ATP] (6.0 μCi/ml). After incubation of 20 minutes at room temperature, the reaction is stopped by addition of 40 μL of stop solution containing 8.7 mM EDTA, BSA 0.17%, 0.17% Triton X-100, 25 mg/ml SPA beads (GE-healthcare). The plate is centrifuged and read for Scintillation imaging on Leadseeker.

PLK3 (h) = PLK3 (h) (Homo sapiens, UniProt Q9H4B4); experiment: PLK3 human kinase inhibition, SPA; assay type: biochemical; settings: read-out: PLK3 pIC50 (converted)
PLK3 (h), sequence (Q9H4B4 whole entry): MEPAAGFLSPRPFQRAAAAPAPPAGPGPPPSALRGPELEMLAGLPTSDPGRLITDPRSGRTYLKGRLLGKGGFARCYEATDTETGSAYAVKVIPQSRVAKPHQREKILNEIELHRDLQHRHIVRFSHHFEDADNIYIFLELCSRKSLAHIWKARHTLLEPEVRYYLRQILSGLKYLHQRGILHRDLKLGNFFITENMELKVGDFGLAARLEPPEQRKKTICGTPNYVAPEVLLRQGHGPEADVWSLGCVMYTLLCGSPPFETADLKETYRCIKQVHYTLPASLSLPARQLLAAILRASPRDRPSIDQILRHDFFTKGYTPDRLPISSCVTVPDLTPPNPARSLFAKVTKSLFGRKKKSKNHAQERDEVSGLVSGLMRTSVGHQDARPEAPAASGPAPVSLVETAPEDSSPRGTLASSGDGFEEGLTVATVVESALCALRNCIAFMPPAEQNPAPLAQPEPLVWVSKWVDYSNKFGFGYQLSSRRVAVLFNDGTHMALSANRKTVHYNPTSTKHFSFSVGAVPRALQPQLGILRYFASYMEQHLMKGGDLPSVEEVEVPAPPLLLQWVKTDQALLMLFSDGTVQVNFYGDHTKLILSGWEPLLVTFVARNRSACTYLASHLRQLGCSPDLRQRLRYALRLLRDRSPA
Method: as §3, §1, §2
as §4, with “PLK3” for “PLK2”

HCT-116 = experiment: Cellular proliferation assay (Alamar blue), HCT-116; assay type: cell-based; settings: Homo sapiens, 10% FCS, 72 hours with compound, Alamar blue 4 h
Method: (§5) […] functional properties of these compounds were tested in cellular proliferation assays on a panel of different cell lines in the presence of 10% FCS serum (37° C. and 5% (v/v) CO2). In a first step these cells were seeded and incubated for 24 hours in the absence of compound. In the second step the cells were incubated for 72 hours with the compounds to be tested for 72 hours. The viable cell number was finally assessed in a standard Alamar blue cell viability assay.
(§6) The viable cell number was assessed by incubation for either 4 h (HCT-116, H1299) 6 h (U87-MG) or 24 h (A2780, MDA-MB-231) with Alamar blue (Resazurin 9 μg/ml, K-Ferrocyanide 90 μM, K-Ferricyanide 90 μM) and the converted fluorescent product was quantified on a fluorescent plate reader (544 nm/590 nm). Effect of the compounds is calculated as of on control cells.

H1299 = experiment: Cellular proliferation assay (Alamar blue), H1299; assay type: cell-based; settings: Homo sapiens, NCI-H1299; 10% FCS; 72 hours with compound; Alamar blue 4 h
Method: as §5, §6

U87-MG = experiment: Cellular proliferation assay (Alamar blue), U87-MG; assay type: cell-based; settings: Homo sapiens, U-87 MG; 10% FCS; 72 hours with compound; Alamar blue 6 h; read-out: U87-MG (cellular proliferation assay, Table 4) (converted)
Method: as §5, §6

A2780 = experiment: Cellular proliferation assay (Alamar blue), A2780; assay type: cell-based; settings: Homo sapiens, 10% FCS, 72 hours with compound, Alamar blue 24 h, read-out: A2780 (cellular proliferation assay, Table 4) (converted)
Method: as §5, §6

MDA-MB-231 = experiment: Cellular proliferation assay (Alamar blue), MDA-MB-231; assay type: cell-based; settings: Homo sapiens, 10% FCS, 72 hours with compound, Alamar blue 24 h, read-out: MDA/MB231 (cellular proliferation assay, Table 4) (converted)
Method: as §5, §6

PLK4 (h), sequence (O00444 whole entry): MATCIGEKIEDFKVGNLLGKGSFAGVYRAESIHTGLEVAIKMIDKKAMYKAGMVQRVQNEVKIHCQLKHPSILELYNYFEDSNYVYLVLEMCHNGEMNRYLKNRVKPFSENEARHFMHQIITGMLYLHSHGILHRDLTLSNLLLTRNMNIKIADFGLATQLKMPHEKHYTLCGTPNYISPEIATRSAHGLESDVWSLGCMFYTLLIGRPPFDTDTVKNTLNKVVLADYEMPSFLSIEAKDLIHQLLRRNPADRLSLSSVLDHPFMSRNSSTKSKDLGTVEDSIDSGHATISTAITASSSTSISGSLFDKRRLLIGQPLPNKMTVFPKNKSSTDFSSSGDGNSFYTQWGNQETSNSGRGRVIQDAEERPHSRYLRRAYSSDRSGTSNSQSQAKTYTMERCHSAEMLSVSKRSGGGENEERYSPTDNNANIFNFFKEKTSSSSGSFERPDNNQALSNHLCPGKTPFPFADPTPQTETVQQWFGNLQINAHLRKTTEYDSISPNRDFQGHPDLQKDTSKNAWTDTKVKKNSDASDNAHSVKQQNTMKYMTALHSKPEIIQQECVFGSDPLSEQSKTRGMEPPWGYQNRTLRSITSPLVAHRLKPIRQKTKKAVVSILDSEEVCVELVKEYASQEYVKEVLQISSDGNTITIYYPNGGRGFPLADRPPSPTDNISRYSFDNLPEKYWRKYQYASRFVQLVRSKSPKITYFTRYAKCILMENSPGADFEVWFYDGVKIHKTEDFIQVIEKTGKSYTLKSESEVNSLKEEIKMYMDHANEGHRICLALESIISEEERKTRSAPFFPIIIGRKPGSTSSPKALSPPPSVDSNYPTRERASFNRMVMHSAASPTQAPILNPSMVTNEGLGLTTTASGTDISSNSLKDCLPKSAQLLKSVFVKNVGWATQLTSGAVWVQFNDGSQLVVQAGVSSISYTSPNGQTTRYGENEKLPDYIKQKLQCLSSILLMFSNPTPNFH

Row | IC50 (PLK4 (h)) [µM] | IC50 (AuroraB (h)) [µM] | IC50 (GSK3β (h)) [µM] | IC50 (CDK1/CyclinB (h)) [µM] | IC50 (PLK1 T210D (h)) [µM] | IC50 (PLK2 (h)) [µM] | IC50 (PLK3 (h)) [µM] | pIC50 (HCT-116) | pIC50 (H1299) | IC50 (U87-MG) [µM] | IC50 (A2780) [µM] | IC50 (MDA-MB-231) [µM] | Compound
1 | 0.363 | 4.68 | 0.309 | > 10 | > 10 | 3.63 | 4.68 | 5.10 | < 5.00 | > 10 | > 10 | > 10 | COc1cc2cc(c1OC)CNC(=O)[C@H](CO)NCc1cccc(c1)-c1ccnc(n1)N2 [Compound 8]
2 | 1.58 | – | – | – | > 10 | – | – | < 5.00 | 5.58 | 5.62 | > 10 | > 10 | O=C1NCCCNCc2ccc(cc2)-c2ccnc(n2)Nc2ccc(N3CCOCC3)c(c2)CN2CCC1CC2 [Compound 69]
3 | 5.89 | > 10 | 2.95 | > 10 | > 10 | > 10 | > 10 | 5.32 | 5.23 | > 10 | > 10 | > 10 | COc1ccc2cc1CN1CCC(CC1)C(=O)N(C)CCCN(C)c1ccc(cn1)-c1ccnc(n1)N2 [Compound 85]
4 | 0.646 | > 10 | 0.417 | 4.68 | > 10 | > 10 | > 10 | 5.77 | 5.06 | 4.57 | 6.03 | 5.37 | CC1(C)NCc2cc(ccc2N2CCOCC2)Nc2nccc(n2)-c2cccc(c2)OCCCNC1=O [Compound 90]
5 | 1.12 | > 10 | 4.68 | > 10 | > 10 | > 10 | > 10 | 5.44 | < 5.00 | > 10 | 7.24 | 10 | O=C1NCCCOc2cccc(c2)-c2ccnc(n2)Nc2ccc(N3CCOCC3)c(c2)CN2CCC1CC2 [Compound 93]
6 | 3.63 | > 10 | 0.417 | > 10 | > 10 | > 10 | > 10 | 5.16 | < 5.00 | 6.92 | 7.76 | > 10 | O=C1NCCCOc2cccc(c2)-c2ccnc(n2)Nc2ccc(N3CCOCC3)c(c2)CN2C[C@H](O)C[C@@H]12 [Compound 99]
7 | – | – | – | – | – | – | – | 6.50 | < 5.00 | 4.68 | > 10 | > 10 | COc1ccc2cc1CN1CCN(CC1)CC(=O)N(C)CCCN(C)c1ccc(cn1)-c1ccnc(n1)N2 [Compound 148]
8 | > 10 | – | – | – | > 10 | – | – | < 5.00 | < 5.00 | > 10 | > 10 | > 10 | COc1ccc2cc1CNCCCNC(=O)[C@@H]1C[C@@H](O)CN1Cc1cc(ccc1N1CCOCC1)Nc1nccc-2n1 [Compound 176]

Row | Compound | IC50 (PLK4 (h)) [µM] | IC50 (AuroraB (h)) [µM] | IC50 (GSK3β (h)) [µM] | IC50 (CDK1/CyclinB (h)) [µM] | IC50 (PLK1 T210D (h)) [µM] | IC50 (PLK2 (h)) [µM] | IC50 (PLK3 (h)) [µM] | pIC50 (HCT-116) | pIC50 (H1299) | IC50 (U87-MG) [µM] | IC50 (A2780) [µM] | IC50 (MDA-MB-231) [µM]
9 | CN1CCNC(=O)[C@H](CO)NCc2cc(cc(N3CCOCC3)c2)Nc2nccc(n2)-c2ccc(cc2)C1 [Compound 108] | 0.603 | 6.03 | 6.61 | > 10 | > 10 | > 3.02 | > 10 | 5.08 | < 5.00 | 8.91 | > 10 | > 10
10 | CN1CCCNC(=O)[C@H](CO)NCc2cc(Br)cc(c2)Nc2nccc(n2)-c2ccc(cc2)C1 [Compound 110] | 0.759 | 2.57 | 6.46 | > 10 | > 10 | > 10 | > 10 | < 5.00 | – | 8.51 | 5.5 | –
11 | CN1CCNC(=O)[C@H](CO)NCc2cc(Br)cc(c2)Nc2nccc(n2)-c2ccc(cc2)C1 [Compound 121] | – | – | – | – | – | – | – | 5.72 | 5.22 | 7.24 | 10 | 7.76
12 | O=C1NCCNCc2ccc(cc2)-c2ccnc(n2)Nc2ccc(N3CCOCC3)c(c2)CN2C[C@H](O)C[C@@H]12 [Compound 166] | 3.55 | – | – | – | > 10 | – | – | < 5.00 | – | > 3.02 | > 10 | > 10
13 | O=C1NCCCNCc2ccc(cc2)-c2ccnc(n2)Nc2ccc(N3CCOCC3)c(c2)CN2CCC[C@@H]12 [Compound 172] | 5.37 | – | – | – | > 10 | – | – | < 5.00 | – | 4.79 | > 10 | > 10
